In article PMC12332266 (Frontiers in Pharmacology, 2025):
Entries after “also recorded” stand apart in the source; their conditions may differ. Where two headings read alike, the source gives them in different places.

Columns and labels:
[1] = system: hiPSC-CM (iCell Cardiomyocytes^2); assay: Intracellular miRNA expression by RT-qPCR in hiPSC-CM pellets after 72-hour treatment; conditions: for fold induction at 0.0003 µM / fold induction at 0.003 µM / fold induction at 0.03 µM / fold induction at 0.3 µM: Homo sapiens
How it was run: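 After 72-hour treatment and RTCA CardioECR assessment, total RNA from hiPSC-CM pellets was reverse transcribed, pre-amplified and quantified by TaqMan RT-qPCR against a 17-miRNA panel. Triplicates were pooled, so no statistical analysis was performed.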

[2] = system: hiPSC-CM (iCell Cardiomyocytes^2); assay: RTCA CardioECR assessment (impedance and electrophysiology parameters); conditions: for RTCA, MEC (CI): change ≥20%, Table 2
How it was run: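 iCell^2 cardiomyocytes on fibronectin-coated ePlates monitored continuously by impedance for cell index, beating rate and amplitude. Field potential duration and spike amplitude were recorded from day 4–6 after monolayer formation. Data were double-normalized to DMSO control and baseline, with variability given as SD.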

[3] = system: hiPSC-CM (iCell Cardiomyocytes^2); assay: miRNA in hiPSC-CM culture media by RT-qPCR at 24, 48 and 72 h post-treatment; conditions: for hsa-miR-133b in culture media, in words: 24, 48, 72 h, arsenic trioxide 0.48 μM, milrinone 3 μM, vincristine 0.3 μM, erlotinib 7.7 μM; for hsa-miR-133b in culture media, in words / hsa-miR-187-3p in culture media, in words: doxorubicin 0.1 μM, vinblastine 0.3 μM;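 as to all read-outs here: medium RNA quantified by RT-qPCR, CT-values normalized to housekeeping miRNAs, compared against DMSO control, doses chosen from the MEC for CI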
Method: To extract total RNA from the culture media, hiPSC-CM were plated on 24-well plates by seeding 275,000 cells per mL per well. hiPSC-CM were maintained for 7 days in 200 µL of iCell^2 Maintenance Medium (iCell^2 MM; FCDI) for the 48-well ePlate and in 1 mL for 24-well plate, before drug treatment. Culture media change was performed every 2 days.
Stock solutions were diluted 1:1000 in iCell^2 MM before treatment and equilibrated at 37°C. As vehicle control, DMSO 0.1% was added to the media. Drug treatments on biological replicates (n = 3) were refreshed daily, and culture media was collected for further miRNA analysis. After 72 h, cell pellets were collected and stored at −80°C until total RNA extraction.
hiPSC-CM culture media was collected daily from 24-well plates, and centrifuged (+4°C, 11,000 rpm) for 5 min to remove cellular debris/cells. Total RNA was extracted from 300 µL of supernatant by Trizol/Chloroform phase separation and purification of total RNA by miRNeasy 96 Kit (Qiagen, Hilden, Germany). The spike-in control cel-miR-39 (Qiagen, Hilden, Germany) was used to check the quality of samples and PCR efficiency. DNase treatment (RNase-Free DNase Set (Qiagen, Hilden, Germany)) was applied according to the manufacturer’s instructions. After the RNA extraction, the same RT-qPCR protocol as for hiPSC-CM lysate was followed. Multiple unpaired t-tests were performed to compare delta CT-values (CT-values normalized to the housekeeping miRNAs) of the treatment groups to the DMSO control.
Analysis of miRNA in the culture media of hiPSC-CM treated with structural cardiotoxicants was performed at 24-, 48- and 72-hour post-treatment. […] The treatment concentrations were selected based on the MEC for CI to ensure that the preliminary evidence of cardiotoxicity in hiPSC-CMs could potentially lead to miRNA release in the culture media.

[4] = ref extensive literature search, cited from earlier work
[5] = 72 h, read-out: hsa-miR-7-5p fold change
[6] = 72 h, read-out: hsa-miR-29a-5p fold change
[7] = 72 h, read-out: hsa-miR-96-5p fold change
[8] = 72 h, read-out: hsa-miR-126-3p fold change
[9] = 72 h, read-out: hsa-miR-133b fold change
[10] = 72 h, read-out: hsa-miR-146b-5p fold change
[11] = 72 h, read-out: hsa-miR-182-5p fold change
[12] = 72 h, read-out: hsa-miR-185-3p fold change
[13] = 72 h, read-out: hsa-miR-187-3p fold change
[14] = 72 h, read-out: hsa-miR-208b-3p fold change
[15] = 72 h, read-out: hsa-miR-365a-5p fold change

For `CC[C@]1(O)C[C@H]2CN(CCc3c([nH]c4ccccc34)[C@@](C(=O)OC)(c3cc4c(cc3OC)N(C=O)[C@H]3[C@@](O)(C(=O)OC)[C@H](OC(C)=O)[C@]5(CC)C=CCN6CC[C@]43[C@@H]65)C2)C1` [Vincristine], the “intracellular miRNA upregulation in hiPSC-CM, in words” value (“intracellular miRNA upregulation” for short) [1] was “smallest fold change”, the “miRNAs hiPSC-CM pellet, MEC overall” value [1] was 0.0003 µM and the “miRNAs upregulated at the MEC overall (hiPSC-CM pellet)” value (“miRNAs upregulated at the MEC overall” for short) [1] was “miR-126-3p”. For the same compound, the “hsa-miR-7-5p fold change, intracellular” value ([1]; 0.3 µM, 72 h) was 1.0, the “hsa-miR-29a-5p fold change, intracellular” value ([1]; 0.3 µM, 72 h) was 1.0 and the “hsa-miR-96-5p fold change, intracellular” value ([1]; 0.3 µM, 72 h) was 0.8. The “hsa-miR-126-3p fold change, intracellular” value ([1]; 0.3 µM, 72 h) was 1.4, the “hsa-miR-133b fold change, intracellular” value ([1]; 0.3 µM, 72 h) was 0.3 and the “hsa-miR-146b-5p fold change, intracellular” value ([1]; 0.3 µM, 72 h) was 0.3. For the same compound, the “hsa-miR-182-5p fold change, intracellular” value ([1]; 0.3 µM, 72 h) was 0.4, the “hsa-miR-185-3p fold change, intracellular” value ([1]; 0.3 µM, 72 h) was 1.1 and the “hsa-miR-187-3p fold change, intracellular” value ([1]; 0.3 µM, 72 h) was 0.7. The “hsa-miR-208b-3p fold change, intracellular” value ([1]; 0.3 µM, 72 h) was 2.2, the fold induction at 0.0003 µM [1, 5] was 1 and the fold induction at 0.003 µM [1, 5] was 1.1. For the same compound, the fold induction at 0.03 µM [1, 5] was 0.9, the fold induction at 0.3 µM [1, 5] was 1 and the fold induction at 0.0003 µM [1, 6] was 0.4. It also gave a fold induction at 0.003 µM [1, 6] of 0.7, a fold induction at 0.03 µM [1, 6] of 1 and a fold induction at 0.3 µM [1, 6] of 1. For the same compound, the fold induction at 0.0003 µM [1, 7] was 0.3, the fold induction at 0.003 µM [1, 7] was 0.6 and the fold induction at 0.03 µM [1, 7] was 0.3. The fold induction at 0.3 µM [1, 7] was 0.8, the fold induction at 0.0003 µM [1, 8] was 3.2 and the fold induction at 0.003 µM [1, 8] was 1.9. For the same compound, the fold induction at 0.03 µM [1, 8] was 1.3, the fold induction at 0.3 µM [1, 8] was 1.4 and the fold induction at 0.0003 µM [1, 9] was 0.3. For the same compound, the fold induction at 0.003 µM [1, 9] was 0.2, the fold induction at 0.03 µM [1, 9] was 0.4 and the fold induction at 0.3 µM [1, 9] was 0.3. It also gave a fold induction at 0.0003 µM [1, 10] of 1.2, a fold induction at 0.003 µM [1, 10] of 0.7 and a fold induction at 0.03 µM [1, 10] of 0.4. For the same compound, the fold induction at 0.3 µM [1, 10] was 0.3, the fold induction at 0.0003 µM [1, 11] was 0.4 and the fold induction at 0.003 µM [1, 11] was 0.5. The fold induction at 0.3 µM [1, 11] was 0.4, the fold induction at 0.0003 µM [1, 12] was 1.4 and the fold induction at 0.003 µM [1, 12] was 2. The fold induction at 0.03 µM [1, 12] was 1, the fold induction at 0.3 µM [1, 12] was 1.1 and the fold induction at 0.0003 µM [1, 13] was 1.3. For the same compound, the fold induction at 0.003 µM [1, 13] was 1.9, the fold induction at 0.03 µM [1, 13] was 1.4 and the fold induction at 0.3 µM [1, 13] was 0.7. For the same compound, the fold induction at 0.0003 µM [1, 14] was 0.8, the fold induction at 0.003 µM [1, 14] was 1.3 and the fold induction at 0.03 µM [1, 14] was 1.6. For the same compound, the fold induction at 0.3 µM [1, 14] was 2.2, the fold induction at 0.0003 µM [1, 15] was 0.6 and the fold induction at 0.003 µM [1, 15] was 1.6. For the same compound, the fold induction at 0.03 µM [1, 15] was 1, the “intracellular miRNA upregulation” value ([1]; human, 72 h) was “intracellular miR-208-3p was upregulated” and the “Cell index (CI) MEC” value ([2]; hiPSC-CM, 72-hour treatment, lowest concentration causing at least 20% change from baseline) was 0.003 µM. For the same compound, the “RTCA, MEC (CI)” value ([2]; hiPSC-CM) was 0.003 µM (CI), the “Cell Index MEC” value ([2]; human, 72 h) was 0.003 µM and the “Contractility Amplitude MEC” value ([2]; human, 72 h) was 0.003 µM. For the same compound, the “Spike Amplitude (SA) MEC” value ([2]; human, 72 h) was 0.003 µM, the “hsa-miR-126-3p fold change, culture media” value ([3]; 0.3 µM, 24h) was 0.4 and the “hsa-miR-208b-3p fold change, culture media” value ([3]; 0.3 µM, 24h) was 0.9. The “hsa-miR-[…] change, culture media” value ([3]; 0.3 µM, 24h) was 1.6, the “hsa-miR-208b-3p fold change, culture media” value ([3]; 0.3 µM, 48h) was 1.3 and the “hsa-miR-[…] change, culture media” value ([3]; 0.3 µM, 48h) was 1.4. For the same compound, the “hsa-miR-7-5p fold change, culture media” value ([3]; 0.3 µM, 72 h) was 0.5, the “hsa-miR-133b fold change, culture media” value ([3]; 0.3 µM, 72 h) was 2.4 and the “hsa-miR-187-3p fold change, culture media” value ([3]; 0.3 µM, 72 h) was 16.0. For the same compound, the “hsa-miR-208b-3p fold change, culture media” value ([3]; 0.3 µM, 72 h) was 2.3, the “hsa-miR-[…] change, culture media” value ([3]; 0.3 µM, 72 h) was 0.3 and the “hsa-miR-133b in culture media, in words” value [3] was “increase that was not statistically significant”. The Cmax total ([4]; Supplementary Table 1) was 50 nM and the Cmax total ([4]; Table 1) was 50 nM.

With `COc1cccc2c1C(=O)c1c(O)c3c(c(O)c1C2=O)C[C@@](O)(C(=O)CO)C[C@@H]3O[C@H]1C[C@H](N)[C@H](O)[C@H](C)O1` [Doxorubicin] the “intracellular miRNA upregulation” value [1] was “lowest upregulation of miRNAs was detected at the highest concentration tested”, the “miRNAs hiPSC-CM pellet, MEC overall” value [1] was 0.03 µM and the “miRNAs upregulated at the MEC overall” value [1] was “miR-34a-5p, miR-146b-5p, miR-187-3p”. The “RTCA, MEC (CI)” value ([2]; hiPSC-CM) was 0.1 µM (CI), the “Contractility Amplitude MEC” value ([2]; human, 72 h) was 0.1 µM and the “Spike Amplitude (SA) MEC” value ([2]; human, 72 h) was 0.01 µM. For the same compound, the “hsa-miR-133b in culture media, in words” value [3] was “upregulation was detected only after 72 h of treatment; also recorded: significant upregulation was observed only after 72-hour treatment”, the “hsa-miR-187-3p in culture media, in words” value [3] was “detected in the culture media only following 72-hour exposure” and the Cmax total ([4]; Supplementary Table 1) was 1600 nM. For the same compound, the Cmax total ([4]; Table 1) was 1600 nM.

For `CC[C@]1(O)C[C@@H]2CN(CCc3c([nH]c4ccccc34)[C@@](C(=O)OC)(c3cc4c(cc3OC)N(C)[C@H]3[C@@](O)(C(=O)OC)[C@H](OC(C)=O)[C@]5(CC)C=CCN6CC[C@]43[C@@H]65)C2)C1` [Vinblastine], the “miRNAs hiPSC-CM pellet, MEC overall” value [1] was 0.0003 µM, the “miRNAs upregulated at the MEC overall” value [1] was “miR-126-3p, miR-133b, miR-185-3p” and the “RTCA, MEC (CI)” value ([2]; hiPSC-CM) was 0.3 µM. The “Beating Rate MEC” value ([2]; human, 72 h) was 0.003 µM, the “Beating rate (BR) MEC” value ([2]; human, 72 h) was 0.003 µM and the “Contractility Amplitude MEC” value ([2]; human, 72 h) was 0.0003 µM. For the same compound, the “RTCA, MEC (BR)” value ([2]; human, 72 h) was 0.003 µM, the “Spike Amplitude (SA) MEC” value ([2]; human, 72 h) was 0.0003 µM and the “hsa-miR-133b in culture media, in words” value [3] was “upregulation was detected only after 72 h of treatment; also recorded: significant upregulation was observed only after 72-hour treatment”. For the same compound, the “hsa-miR-187-3p in culture media, in words” value [3] was “detected in the culture media only following 72-hour exposure”, the Cmax total ([4]; Supplementary Table 1) was 35 nM and the Cmax total ([4]; Table 1) was 35 nM.
